From patent publication US4863932A, “Squalene oxide cyclase inhibitors and therapeutic use thereof” (Somatogenetics International, Inc., priority 1988, dated 1989)
In brackets after ≈: the same amount, converted by molar mass.

How the values were obtained:
[1] = test system: cyclases of higher plants; conditions: Duriatti et al. 1985; cited from earlier work
SOC = conditions: Duriatti et al. 1985; cited from earlier work
cholesterol synthesis = experiment: Inhibition of cholesterol synthesis
fatty acid synthesis = experiment: Inhibition of fatty acid synthesis; conditions: compared with its inhibition of cholesterol synthesis
[2] = test system: LDL receptor of HepG2 cells; experiment: Effect on the LDL receptor of HepG2 cells (125I-LDL binding, internalization, degradation); assay type: cell-based; conditions: for 125I-LDL Binding / 125I-LDL Internal / 125I-LDL Degradation: HepG2 cells; for 125I-LDL Binding: untreated 57 ± 3; for 125I-LDL Internal: untreated 374 ± 9; for 125I-LDL Degradation: untreated 701 ± 38; for LDL BINDING: ± SEM
Procedure: We have compared LA-I-140 and LN-I-83 with the conventional squalene oxide cyclase inhibitors U18666A and TMD by studying their effect on the LDL receptor of HepG2 cells.
The assay is essentially as described by Goldstein, Basu and Brown (Methods in Enzymology, 98: 241-260, 1983). Briefly, confluent cultures of HepG2 cells are incubated for 24 hours in cholesterol-free medium to induce LDL receptors. Test compounds are added to the medium at appropriate concenrations during this incubation. At the end of 24 hours [^125 I]labeled LDL (200-400 cpm/ng) is added to the medium (10-50 ug LDL protein/ml) and the cells are incubated at 37° C. for 3-6 hours.
(a) Degradation of ^125 I-LDL: The culture medium is removed from the monolayer of cells and undegraded LDL is precipitated with 10% (w/v) trichloroacetic acid.
The supernatant fraction is treated with 5% (w/v) silver nitrate to precipitate any free iodine. The radioactivity in the final supernatant fraction, which represents monoiodotyrosine, the proteolytic degradation product of ^125 I-LDL, is measured in a gamma counter.
(b) Specific binding of ^125 I-LDL: The cell monolayers are washed in a cold room (4° C.) three times rapidly with ice-cold buffer B (150 mM NaCl, 50 mM TrisHCl, pH 7.4 and 2 mg/ml bovine serum albumin). Each monolayer is incubated in buffer B for 10 minutes followed by one wash with buffer C (buffer B with bovine serum albumin omitted). Receptor-boundLDL is then released form cell surface by adding buffer D (50 mM NaCl, 10 mM HEPES, pH 7.4, 4 mg/ml dextran sulfate) and incubating at 4° C for 60 minutes on a rotary shaker (60 rotations per minute). An aliquot of buffer D is counted to determine the amount of ^125 I-LDL released from cell surface.
Internalization of ^125 I-LDL: After removal of buffer D, the cell monolayers are dissolved in 0.1 N NaOH by incubation overnight at 37° C. in a humidified incubator. The alkaline digest is briefly homogenized with the aid of a sonicator and aliquots are withdrawn for the determination of internalized radioactivity and for measurement of cell protein. All values are normalized for 1 mg of cell protein. The results are shown n Table 1 below:
In the case of PCR-II-23 and PCR-II-8B, we have examined their binding to the LDL receptors both when administered alone and in the presence of "down" regulators of this receptor (Table 2).

[3] = test system: sterol synthesis in primary rat hepatocytes; experiment: Inhibition of sterol synthesis in primary rat hepatocytes ([3H]-acetate pulse, digitonide precipitation); assay type: cell-based
Procedure: Primary rat hepatocytes (2.2×10^6 cells/60 mm plate) were incubated overnight with various concentrations of inhibitor. The cells are then pulsed for 1 hour with tritiated acetate, harvested by centrifugation and the lipids extracted (Bligh, E. G. and Dyer, W. J. Can. J. Biochem. Physiol. 1959, 37. 911-917). Polar lipid are separated from neutral lipids by silicic acid chromatography. The polar lipids are collected and counted for radioactive acetate incorporation, and used as control for total acetate metabolism. The neutral lipid fraction is saponified and sterols precipitated with digitonide. The digitonide precipitate is counted to measure total incorporation of radioactive acetate into sterols.
lnhibition of sterol synthesis by PCR II-23 was determined as set forth in Example 1.

squalene oxide cyclase [4] = molecular target: T1, squalene oxide cyclase (Rattus norvegicus, UniProt P48450); experiment: biochemical; assay type: biochemical; parameters: Using a rat liver microsomal squalene oxide cyclase assay; from tissue; host or cells: rat liver microsomes / homogenate; conditions: for IC50: 40 uM [3H]-oxidosqualene, pH 7.5, anaerobic, 1 hour, 37° C, read-out: I50 (dosage needed to suppress half the SOC activity); for effectiveness as SOC inhibitor relative to TMD: ratio of I50 values, TMD as reference
T1 sequence (P48450 1-733): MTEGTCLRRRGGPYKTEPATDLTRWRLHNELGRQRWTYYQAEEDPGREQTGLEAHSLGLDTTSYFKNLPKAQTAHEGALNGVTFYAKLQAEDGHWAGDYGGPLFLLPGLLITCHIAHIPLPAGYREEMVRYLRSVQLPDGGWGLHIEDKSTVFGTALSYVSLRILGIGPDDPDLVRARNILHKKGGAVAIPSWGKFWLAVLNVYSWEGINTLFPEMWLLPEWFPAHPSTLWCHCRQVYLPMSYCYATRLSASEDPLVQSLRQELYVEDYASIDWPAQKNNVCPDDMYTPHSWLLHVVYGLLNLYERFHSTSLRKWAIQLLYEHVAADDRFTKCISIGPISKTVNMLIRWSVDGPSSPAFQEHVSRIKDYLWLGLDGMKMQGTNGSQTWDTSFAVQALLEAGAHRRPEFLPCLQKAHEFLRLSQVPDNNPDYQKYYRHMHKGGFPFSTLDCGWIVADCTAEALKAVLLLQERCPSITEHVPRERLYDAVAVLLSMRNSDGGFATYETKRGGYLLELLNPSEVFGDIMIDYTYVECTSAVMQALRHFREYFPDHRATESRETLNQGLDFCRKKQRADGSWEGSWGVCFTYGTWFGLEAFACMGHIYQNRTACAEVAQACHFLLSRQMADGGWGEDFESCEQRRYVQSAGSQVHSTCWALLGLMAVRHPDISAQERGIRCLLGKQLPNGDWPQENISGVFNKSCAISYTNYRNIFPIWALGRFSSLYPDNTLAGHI
Procedure: Using a rat liver microsomal squalene oxide cyclase assay, we have determined the dose at which these drugs and TMD reduce squalene oxide cyclase activity to one-half its normal value. Rat liver microsomes ([…] -rat liver homogenate) were prepared by the method of Popjak, G (Methods in Enzymology, 1969 XV, 393-545). The reaction mixture contained [^3 H]-(S)-[…] (40 uM final), Tween-80 (0.15% w/v final), 0.1 M potassium phosphate, pH 7.5, and inhibitor of varying concentration all in 0.8 ml. The reaction was initiated by the addition of 0.2 ml of the SIO homogenate. The reaction was flushed with N2 and incubated anaerobically for 1 hour at 37° C. The reaction was terminated by addition of 1 ml of 6% potassium hydroxide in methanol (w/v). […] After reduction to […], cold lanosterol was added as carrier, and the extract was applied to a silica TLC plate. After development in methylene chloride, the spot corresponding to lanosterol was scraped off and counted for radioactivity. The I50 for each inhibitor was determined from a plot of radioactive lanosterol formed versus inhibitor concentration.

squalene oxide cyclase [5] = molecular target: T1, squalene oxide cyclase
squalene oxide cyclase [6] = experiment: SOC inhibition in in vivo experiments
[7] = incubation with rat liver homogenate; Nelson et al. 1978; cited from earlier work
[8] = test system: cholesterol biosynthesis in CHO cells; conditions: Nelson et al. 1978; cited from earlier work
[9] = test system: cholesterol biosynthesis in rat liver enzyme preparations; conditions: Nelson et al. 1978; cited from earlier work
lymphocytes = conditions: in vivo; cited from earlier work
[10] = inhibitor with suppressor 25-hydroxy-cholesterol (5 ug/ml), HDF 34 ± 3
[11] = inhibitor with suppressor LDL (200 ug/ml), HDF 27 ± 2
[12] = inhibitor with suppressor Mevalonate, HDF 19 ± 2
[13] = suppressor: none, HDF control 88 ± 6

## C[C@@H]1[C@@H](O)CC[C@]2(C)CCCC[C@@H]12 (relative stereo) [4,10 beta-dimethyl analogue]
[1]
  effect on the cyclases of higher plants: virtually no effect
SOC
  type of inhibition of SOC: nonoompetitive inhibitors of SOC

## CC1(C)[C@@H](O)CC[C@]2(C)[C@@H](CO)CCC[C@@H]12 (relative stereo) [JW I-60, 4,4,10beta-trimethyl-9beta-hydroxymethyl-trans-decal-3beta-ol]
Cholesterol synthesis
  inhibition of cholesterol synthesis: weak inhibitor of cholesterol synthesis
Fatty acid synthesis
  inhibition of fatty acid synthesis: much more effective inhibitor of fatty acid synthesis

## CC1(C)NCC[C@]2(C)CCCC[C@@H]12 (relative stereo) [LA-I-140, 4,4,10-trimethyl-trans-3-azadecalin]
[2]; 20 ug/ml
  125I-LDL Binding: 75 ± 3 ng/mg cell protein
  125I-LDL Internal: 642 ± 96 ng/mg cell protein
  125I-LDL Degradation: 408 ± 61 ng/mg cell protein
[3]; Hepatocyte, primary rat hepatocytes, overnight incubation, read-out: concentration reducing sterol synthesis to one-half of normal levels
  IC50: 40 mg/L (≈ 221 µM)

## CC1(C)[C@@H](O)CC[C@]2(C)CCC(F)(F)C[C@@H]12 (relative stereo) [LN I-83, 4,4,10 beta-Trimethyl-7,7-difluoro-trans-decal-3beta-ol]
[2]; 20 ug/ml
  125I-LDL Binding: 105 ± 12 ng/mg cell protein
  125I-LDL Internal: 687 ± 152 ng/mg cell protein
  125I-LDL Degradation: 864 ± 47 ng/mg cell protein
Squalene oxide cyclase [4]
  IC50: 430 µM

## CC1(C)[C@@H](O)CC[C@]2(C)CCC3(CC3)C[C@@H]12 (relative stereo) [PCR II-8B, (4,4,10beta-trimethyl-trans-decal-3 beta-ol)--7-spiro-1'-cyclopropane]
[2]; [10]
  LDL BINDING: 69 ± 4 ng/mg cell protein
[2]; [11]
  LDL BINDING: 39 ± 4 ng/mg cell protein
[2]; [12]
  LDL BINDING: 176 ± 17 ng/mg cell protein
[2]; [13]
  LDL BINDING: 278 ± 3 ng/mg cell protein
Squalene oxide cyclase [4]
  IC50: 80 µM
  effectiveness as SOC inhibitor relative to TMD: ~5.4 times
[3]; 50 ug/ml
  sterol biosynthesis by primary rat hepatocytes: no detectable sterol biosynthesis

## CC1(C)CC[C@@]2(C)CC[C@H](O)C(C)(C)[C@@H]2C1 (relative stereo) [PCR II-23, 4,4,7,7, 10beta-Pentamethvl-trans-decal-3beta-ol]
[2]; [10]
  LDL BINDING: 117 ± 11 ng/mg cell protein
[2]; [11]
  LDL BINDING: 36 ± 2 ng/mg cell protein
[2]; [12]
  LDL BINDING: 196 ± 30 ng/mg cell protein
[2]; [13]
  LDL BINDING: 281 ± 18 ng/mg cell protein
Squalene oxide cyclase [4]
  IC50: 160 µM
  effectiveness as SOC inhibitor relative to TMD: about 2.7 times

## CC1(C)[C@@H](O)CC[C@]2(C)CCCC[C@@H]12 (relative stereo) [TMD, 4, 4,10 beta-trimethyl-trans-decal-3beta-ol]
[2]; 20 ug/ml
  125I-LDL Binding: 130 ± 11 ng/mg cell protein
  125I-LDL Internal: 891 ± 202 ng/mg cell protein
  125I-LDL Degradation: 990 ± 71 ng/mg cell protein
Squalene oxide cyclase [5]
  inhibition of SOC in rat hepatocytes: unexpectedly poor inhibitor of SOC
[1]
  effect on the cyclases of higher plants: virtually no effect
Squalene oxide cyclase [4]
  inhibition of squalene oxide cyclase in in vitro microsomal assays: effective inhibitor of squalene oxide cyclase
  IC50: 430 µM
Squalene oxide cyclase [6]
  inhibition of SOC in vivo: unexpectedly poor inhibitor of SOC
[7]
  major product of metabolism: 4,4,10beta-trimethyl-trans-decalin-3beta, 7beta-diol was isolated as the major product of TMD metabolism
[8]
  inhibition of cholesterol biosynthesis: specifically inhibited cholesterol biosynthesis
[9]
  inhibition of cholesterol biosynthesis: specifically inhibited cholesterol biosynthesis
SOC
  type of inhibition of SOC: nonoompetitive inhibitors of SOC

## C[C@H](CCCC(C)(C)O)[C@H]1CC[C@H]2[C@@H]3CC=C4C[C@@H](O)CC[C@]4(C)[C@H]3CC[C@]12C [25-hydroxy-cholesterol]
[2]; suppressor alone in HDF, 5 ug/ml, no suppressor 88 ± 6
  LDL BINDING: 34 ± 3 ng/mg cell protein

## CC(O)(CCO)CC(=O)O (stereo not drawn) [Mevalonate]
[2]; suppressor alone in HDF, no suppressor 88 ± 6
  LDL BINDING: 19 ± 2 ng/mg cell protein

## CC[C@H](C)C(=O)O[C@H]1C[C@@H](C)C=C2C=C[C@H](C)[C@H](CC[C@@H]3C[C@@H](O)CC(=O)O3)[C@H]21 [Mevinolin]
[2]; culture medium free of sterol supplements (HDF)
  up regulation of LDL receptors in HepG2 cells: equally effective in up regulation of LDL receptors
[2]; [10]
  LDL BINDING: 3 ± 2 ng/mg cell protein
[2]; [11]
  LDL BINDING: 38 ± 3 ng/mg cell protein
[2]; [12]
  LDL BINDING: 35 ± 2 ng/mg cell protein
[2]; [13]
  LDL BINDING: 213 ± 4 ng/mg cell protein
lymphocytes
  defects in glycosylation of proteins in lymphocytes: defects in the glycosylation of proteins in lymphocytes which can persist for ten months after administration

## CCN(CC)CCO[C@H]1CC[C@@]2(C)C(=CC[C@@H]3[C@@H]2CC[C@]2(C)C(=O)CC[C@@H]32)C1 [U18666A]
[2]; 5 ug/ml
  125I-LDL Binding: 160 ± 4 ng/mg cell protein
  125I-LDL Internal: 1093 ± 17 ng/mg cell protein
  125I-LDL Degradation: 682 ± 141 ng/mg cell protein
